Biological target: human metabotropic glutamate receptor 5 (hmGluR5) (UniProt P31424)
Experiment: Calcium mobilization (FLIPR) assay, positive allosteric modulation of the EC20 glutamate response
Type: cell-based
Conditions: HEK 293 cells; for maximum modulation (Emax): EC20 glutamate response; for EC50: increase in EC20 glutamate response
Description: The cDNA for human metabotropic glutamate receptor 5 (hmGluR5) was a generous gift from S. Nakanishi (Kyoto University, Kyoto, Japan). The […] was stably expressed in a HEK 293 cell line and grown in Dulbecco's Modified Eagle Medium (DMEM) (Invitrogen, Carlsbad, Calif.) with supplements (10% bovine calf serum, 4 mM glutamine, 100 units/mL penicillin, 100 μg/mL streptomycin and […]) at 37° C., 5% CO2. Twenty-four hours prior to assay, cells were seeded into 384-well black wall microtiter plates coated with poly-D-lysine. Just prior to assay, media was aspirated and cells dye-loaded (25 μL/well) with 3 μM Fluo-4/0.01% pluronic acid in assay buffer (Hank's Balanced Saline Solution (HBSS)): 150 mM NaCl, 5 mM KCl, 1 mM CaCl2, 1 mM MgCl2, plus 20 mM N-2-Hydroxyethylpiperazine-N′-2-ethanesulfonic acid (HEPES), pH 7.4, 0.1% bovine serum albumin (BSA) and 2.5 mM probenicid) for 1 hour in 5% CO2 at 37° C. After excess dye was discarded, cells were washed in assay buffer and layered with a final volume equal to 30 μL/well. Basal fluorescence is monitored in a fluorometric imaging plate reader (FLIPR) (Molecular Devices, Sunnyvale, Calif.) with an excitation wavelength of 488 nm and an emission range of 500 to 560 nm. Laser excitation energy was adjusted so that basal fluorescence readings were approximately 10,000 relative fluorescent units. Cells were stimulated with an EC20 or an EC80 concentration of glutamate in the presence of a compound to be tested, both diluted in assay buffer, and relative fluorescent units were measured at defined intervals (exposure=0.6 sec) over a 3 min period at room temperature. Basal readings derived from negative controls were subtracted from all samples. Maximum change in fluorescence was calculated for each well. Concentration-response curves derived from the maximum change in fluorescence were analyzed by nonlinear regression (Hill equation).
A silent allosteric modulator (SAM) can be identified by using a combination of both the calcium mobilization assay data and the radioligand binding data. As used herein, the term “silent allosteric modulator” refers to a ligand that binds to an allosteric site of the receptor but has no measurable intrinsic efficacy.

SMILES	maximum modulation (Emax) [%]	EC50 [nM]
O=C(c1cnc(C#Cc2ccc(F)cc2)s1)N1CCC(O)CC1 [Example 29, [2-(4-Fluoro-phenylethynyl)-thiazol-5-yl]-(4-hydroxy-piperidin-1-yl)-methanone]	100	2400
C(#Cc1ncc(CN2CCCC2)s1)c1ccccc1 [Example 207, 2-Phenylethynyl-5-pyrrolidin-1-ylmethyl-thiazole]	110	220
O=C(c1cnc(C#Cc2ccccc2Cl)s1)N1CCCCC1 [Example 68, [2-(2-Chloro-phenylethynyl)-thiazol-5-yl]-piperidin-1-yl-methanone]	100	440
O=C(c1cnc(C#Cc2ccccc2)s1)N1CCC(N2CCCC2)C1 (stereo not drawn) [Example 141, [1,3]Bipyrrolidinyl-1-yl-(2-phenylethynyl-thiazol-5-yl)-methanone]		4000
O=C(c1cnc(C#Cc2cccnc2)s1)N1CCCCC1 [Example 188, Piperidin-1-yl-(2-pyridin-3-ylethynyl-thiazol-5-yl)-methanone]	95	6200
CC1(O)CCN(C(=O)c2cnc(C#Cc3ccccc3)s2)CC1 [Example 80, (4-Hydroxy-4-methyl-piperidin-1-yl)-(2-phenylethynyl-thiazol-5-yl)-methanone]	120	290
CC(=O)c1cnc(C#Cc2ccccc2)s1 [Example 239, 1-(2-Phenylethynyl-thiazol-5-yl)-ethanone]	170	190
COC1CN(Cc2cnc(C#Cc3ccccc3)s2)C1 [Example 214, 5-(3-Methoxy-azetidin-1-ylmethyl)-2-phenylethynyl-thiazole]	120	760
O=C(c1cnc(C#Cc2ccccc2)s1)C1CCCCC1 [Example 238, Cyclohexyl-(2-phenylethynyl-thiazol-5-yl)-methanone]	130	110
CC(c1cnc(C#Cc2ccccc2)s1)N1CCOCC1 (stereo not drawn) [Example 232, 4-[1-(2-Phenylethynyl-thiazol-5-yl)-ethyl]-morpholine]	62	220
C(#Cc1ncc(CN2CC3CCC2C3)s1)c1ccccc1 (stereo not drawn) [Example 218, 2-(2-Phenylethynyl-thiazol-5-ylmethyl)-2-aza-bicyclo[2.2.1]heptane]	79	380
CN1CCN(C(=O)c2cnc(C#Cc3ccccc3)s2)CC1 [Example 42, (4-Methyl-piperazin-1-yl)-(2-phenylethynyl-thiazol-5-yl)-methanone]	160	530
CN1CCN(C(=O)c2cnc(C#Cc3cccc(Cl)c3)s2)CC1 [Example 158, [2-(3-Chloro-phenylethynyl)-thiazol-5-yl]-(4-methyl-piperazin-1-yl)-methanone]	94	140
O=C1CCN(C(=O)c2cnc(C#Cc3ccccc3)s2)C1 [Example 140, 1-(2-Phenylethynyl-thiazole-5-carbonyl)-pyrrolidin-3-one]	110	110
CC1(O)CCN(C(=O)c2cnc(C#Cc3ccccc3)s2)C1 (stereo not drawn) [Example 137, (3-Hydroxy-3-methyl-pyrrolidin-1-yl)-(2-phenylethynyl-thiazol-5-yl)-methanone]	38	110
O=C(c1cnc(C#Cc2ccccc2)s1)N1CCCC(N2CCOCC2)CC1 (stereo not drawn) [Example 148, (4-Morpholin-4-yl-azepan-1-yl)-(2-phenylethynyl-thiazol-5-yl)-methanone]	100	3400
CCOC1CCN(C(=O)c2cnc(C#Cc3ccccc3)s2)CC1 [Example 122, (4-Ethoxy-piperidin-1-yl)-(2-phenylethynyl-thiazol-5-yl)-methanone]	130	220
O=C(c1cnc(C#CC2CCCCC2)s1)N1CCCCC1 [Example 200, (2-Cyclohexylethynyl-thiazol-5-yl)-piperidin-1-yl-methanone]	160	510

Stronger by EC50, values ahead:

maximum modulation (Emax) [%]	EC50 [nM]	SMILES
130	64	O=C(c1cnc(C#Cc2ccccc2)s1)N1CCC(C(F)(F)F)CC1 [Example 111, (2-Phenylethynyl-thiazol-5-yl)-(4-trifluoromethyl-piperidin-1-yl)-methanone]
140	58	COC1CCN(C(=O)c2cnc(C#Cc3ccccc3)s2)CC1 [Example 121, (4-Methoxy-piperidin-1-yl)-(2-phenylethynyl-thiazol-5-yl)-methanone]
50	55	Cc1cccc(C#Cc2ncc(C(=O)N3CCC(O)CC3)s2)c1 [Example 25, (4-Hydroxy-piperidin-1-yl)-(2-m-tolylethynyl-thiazol-5-yl)-methanone]
50	53	OC(c1cnc(C#Cc2ccccc2)s1)C1CCCCC1 (stereo not drawn) [Example 235, Cyclohexyl-(2-phenylethynyl-thiazol-5-yl)-methanol]
71	37	CN(C)Cc1cnc(C#Cc2ccccc2)s1 [Example 212, Dimethyl-(2-phenylethynyl-thiazol-5-ylmethyl)-amine]
110	36	FC1(F)CCN(Cc2cnc(C#Cc3ccccc3)s2)CC1 [Example 223, 4,4-Difluoro-1-(2-phenylethynyl-thiazol-5-ylmethyl)-piperidine]
110	29	O=C(c1cnc(C#Cc2ccc(F)cc2)s1)N1CCCCC1 [Example 30, [2-(4-Fluoro-phenylethynyl)-thiazol-5-yl]-piperidin-1-yl-methanone]
91	23	Cc1nc(C#Cc2ccccc2)sc1C(=O)N1CCC(C)CC1 [Example 14, (4-Methyl-2-phenylethynyl-thiazol-5-yl)-(4-methyl-piperidin-1-yl)-methanone]
140	20	CC1CCN(C(=O)c2cnc(C#Cc3ccccc3F)s2)CC1 [Example 63, [2-(2-Fluoro-phenylethynyl)-thiazol-5-yl]-(4-methyl-piperidin-1-yl)-methanone]
180	20	O=C(c1cnc(C#Cc2ccccc2)s1)N1CCc2sccc2C1 [Example 135, (6,7-Dihydro-4H-thieno[3,2-c]pyridin-5-yl)-(2-phenylethynyl-thiazol-5-yl)-methanone]
42	12	O=C(c1cnc(C#Cc2cccc(Cl)c2)s1)N1CCC(O)CC1 [Example 38, [2-(3-Chloro-phenylethynyl)-thiazol-5-yl]-(4-hydroxy-piperidin-1-yl)-methanone]
79	5.2	O=C(c1cnc(C#Cc2ccccc2)s1)N1CCCCCC1 [Example 58, Azepan-1-yl-(2-phenylethynyl-thiazol-5-yl)-methanone]
78	5.2	O=C(c1cnc(C#Cc2ccsc2)s1)N1CCCCC1 [Example 190, Piperidin-1-yl-(2-thiophen-3-ylethynyl-thiazol-5-yl)-methanone]
110	0.71	CC1CCN(C(=O)c2cnc(C#Cc3cccc(F)c3)s2)CC1 [Example 20]
